Results: US12275734B1, “Pleuromutilin onium salt derivative containing a 3H-imidazo[4,5-c]pyridine side chain, and a preparation method and application thereof” (SHAANXI UNIVERSITY OF SCIENCE AND TECHNOLOGY, priority 2024, dated 2025)

Experiments:
E. coli (ATCC 25922) [1] = assay: Bacterial intracellular pH (cFDA-SE); assay type: cell-based; settings: control 6.16±0.10
Experimental: (§1) The definition of pHin is based on the ratio of the pH-sensitive wavelength (490 nm) to the pH-insensitive wavelength (440 nm).
(§2) First, prepare fluorescently labeled bacterial cells. MRSA and E. coli bacteria were removed from the culture in the logarithmic growth phase, and after high-speed centrifugation and washing with HEPES buffer, the bacteria were labeled with carboxyfluorescein succinimidyl ester (cFDA-SE), and the fluorescent dye was bound to the cells by incubation.
(§3) Next, PBS buffer was used to wash and remove the unbound fluorescent dye, and then the cells were suspended in the buffer and stored in a low-temperature environment. The second step was to determine the intracellular pH. The fluorescently labeled cell suspension was added to a test tube containing different concentrations of compound i and transferred to a black opaque 96-well plate for incubation. The fluorescence value was measured at specific excitation and emission wavelengths using a full-wavelength scanning multifunctional reader to calculate the intracellular pH. The last step is the calibration of the intracellular pH. The standard curve was determined using buffer solutions with different pH values to ensure accurate determination of the pH value inside the bacterial cells. […]

[2] = system: Staphylococcus aureus (MRSA, ATCC 33591); assay: Mouse MRSA systemic infection model, survival rate; assay type: in vivo; settings: MRSA-infected mice, 5, 10, 20 mg/kg single intraperitoneal injection 1 hour after infection, 7-day survival
Experimental: Establishment of a mouse model of MRSA systemic infection
(1) Solution preparation and bacterial activation: Reference Example 15.
(2) Pretreatment: All mice received cyclophosphamide treatment, with the first intraperitoneal injection of 150 mg/kg cyclophosphamide 4 days before infection and the second intraperitoneal injection of 100 mg/kg cyclophosphamide 1 day before infection.
(3) Control group treatment: Mice in the blank control group received intraperitoneal injection of 0.9% saline.
(4) Infection process: Mice were anesthetized with isoflurane and infected by intraperitoneal injection of Staphylococcus aureus (MRSA, ATCC 33591) at a concentration of 10^7 CFU/mL.
(1) Experimental groups: The doses of compound i and valnemulin were 5, 10, and 20 mg/kg, respectively (the solvent was dimethyl sulfoxide: Tween-80: sterile water=1:0.5:9.5);
A model control group (administered with a solvent after infection with bacteria) and a blank control group (administered with a solvent only without infection with bacteria) were set up, with 10 mice in each group, half of which were male and half were female.
(2) Time point: Intraperitoneal injection was performed in the experimental group mice at 1 hour after infection.
(3) Therapeutic dose: The mice in the experimental groups received intraperitoneal injection of 0.5 mL of compound i and valnemulin at different concentrations. […]

MRSA (ATCC 33591) [3] = assay: Biofilm formation, crystal violet staining; assay type: cell-based, S. aureus
Experimental: (§4) Quantification of biofilm using crystal violet staining:
(§5) MRSA and E. coli cells were first adjusted to the logarithmic growth phase and diluted to […]. […] A blank control group without compound addition was set up. After incubation, the suspension was discarded and washed three times with 10 mM PBS buffer, and the biofilm was fixed with methanol for 15 minutes. After removing the methanol, 200 μL of 0.1% crystal violet was added to each well for staining for 30 minutes, and then the crystal violet was discarded and washed again with PBS three times. After the well plate was dried, 200 μL of 95% ethanol was added to each well to dissolve the fixed dye. […] This process allows for quantitative analysis of the ability of different concentrations of compound i to form biofilms.

E. coli (ATCC 25922) [4] = assay: Intracellular and extracellular ATP concentration; assay type: cell-based
Experimental: The intracellular and extracellular ATP levels refer to the concentration of ATP inside and outside the cell. Under normal physiological conditions, ATP is mainly produced inside the cell and released outside the cell when needed. This dynamic change is very important for maintaining normal biological homeostasis.
Determine the intracellular ATP concentration using the ATP assay kit:
Secondly, the bacterial suspension was treated with different concentrations of compound i, and a blank control group was set up. Next, the samples were incubated at 37° C. and the cells were lysed by ultrasound to extract ATP. After that, the supernatant was collected by high-speed centrifugation and ATP detection was performed, which involved adding the detection solution and compound to a 96-well plate and using a reader to measure the light intensity. Finally, data analysis and statistics were performed to evaluate the effects of the compound by comparing the ATP levels of different treatment groups.

E. coli (ATCC 25922) [5] = assay: Biofilm formation, crystal violet staining; assay type: cell-based
Experimental: as §4, §5

MRSA (ATCC 33591) [6] = assay: Cell membrane integrity, propidium iodide staining; assay type: cell-based, S. aureus
Experimental: The steps for dead cell staining using propidium iodide are as follows:
At the beginning of the experiment, samples were taken from MRSA and E. coli in the logarithmic growth phase, centrifuged at 8000 rpm for 5 minutes and washed twice with 0.85% NaCl solution to remove the culture medium and other possible interfering substances. Afterwards, the bacteria were resuspended in 0.85% NaCl solution and the concentration was adjusted to approximately 1×10^8 CFU/mL.
[…] After incubation, in order to mark and distinguish dead cells, 15 μM propidium iodide solution was added to each sample and incubated in the dark for 15 minutes. PI is a fluorescent dye that binds to DNA and can only penetrate into dead cells with damaged cell membranes.
Finally, the samples were observed using a fluorescence microscope or a confocal laser scanning microscope. By setting the appropriate fluorescence channel (excitation wavelength 535 nm, emission wavelength 617 nm), the red fluorescence emitted by dead cells can be detected. In this way, the effect of compound i on the lethality of bacterial cells can be intuitively evaluated and recorded, providing an experimental basis for further drug research.

MRSA (ATCC 33591) [7] = assay: Bacterial intracellular pH (cFDA-SE); assay type: cell-based, S. aureus; settings: control 6.57±0.10
Experimental: as §1, §2, §3

E. coli (ATCC 25922) [8] = assay: Cell membrane potential, DiBAC4 (3) probe; settings: 1×MIC to 8×MIC, vs blank control

C=C[C@]1(C)C[C@@H](OC(=O)CSc2nc3cc[n+](Cc4ccc(C)cc4)cc3[nH]2)[C@]2(C)[C@H](C)CC[C@]3(CCC(=O)[C@H]32)[C@@H](C)[C@@H]1O [Compound i, 5-(4-methylbenzyl)-2-((2-(((3aR,4R,5R,7S,8S,9R,9aS,12R)-8-hydroxy-4,7,9,12-tetramethyl-3-oxo-7-vinyldecahydro-4,9a-propancyclopenta[8]cyclo-5-yl)oxy)-2-oxoethyl)thio)-3H-imidazo[4,5-C]pyridine-5-ium]
intracellular pH after treatment (E. coli (ATCC 25922) [1]; 1×MIC): 4.79±0.10 | intracellular pH after treatment (E. coli (ATCC 25922) [1]; 2×MIC): 3.58±0.10 | survival rate of mice [2]: significantly higher than the survival rate of mice given warnemulin | inhibition rate of biofilm formation (MRSA (ATCC 33591) [3]; 1×MIC): 51.33% | inhibition rate of biofilm formation (MRSA (ATCC 33591) [3]; 8×MIC): 86.68% | extracellular fluorescence intensity (ATP) increased by (E. coli (ATCC 25922) [4]; 1×MIC): 4.34 times | intracellular fluorescence intensity (ATP) decreased by (E. coli (ATCC 25922) [4]; 1×MIC): 50.75% | extracellular fluorescence intensity (ATP) increased by (E. coli (ATCC 25922) [4]; 2×MIC): 5.35 times | intracellular fluorescence intensity (ATP) decreased by (E. coli (ATCC 25922) [4]; 2×MIC): 67.87% | inhibition rate of biofilm formation (E. coli (ATCC 25922) [5]; 1×MIC): 60.47% | inhibition rate of biofilm formation (E. coli (ATCC 25922) [5]; 8×MIC): 94.54% | cell membrane integrity, propidium iodide red fluorescence (MRSA (ATCC 33591) [6]; 1×MIC): obvious red fluorescence was observed | cell membrane integrity, propidium iodide red fluorescence (MRSA (ATCC 33591) [6]; 2×MIC): red fluorescence was significantly enhanced | intracellular pH after treatment (MRSA (ATCC 33591) [7]; 1×MIC): 4.66±0.12 | intracellular pH after treatment (MRSA (ATCC 33591) [7]; 2×MIC): 2.96±0.09 | membrane potential, DiBAC4 (3) fluorescence intensity (E. coli (ATCC 25922) [8]): dose-dependent increase in fluorescence intensity
